In US20260345621A1, “GABAA RECEPTOR MODULATORS AND USES THEREOF” (Engrail Therapeutics, Inc., priority 2022, published 2026):
“Also recorded” adds a separate entry of the source. Like-named read-outs stand apart in the source and are kept apart here.

How the values were obtained:
[1] = molecular target: human GABAA receptor α2/β3/γ2 (Homo sapiens, UniProt P18507+P47869); experiment: SyncroPatch platform, PAM mode, GABAA α2/β3/γ2
[2] = Multiple ascending dose study, plasma pharmacokinetics; type: in vivo, human (healthy volunteers); details: for AUC(0-t) at 24 h / Cmax at 24 h / AUC tau / Cmax at 288 h / half-life: human, plasma, po
Procedure: A clinical study was developed to evaluate safety, tolerability, pharmacokinetics, and pharmacodynamics of Compound 1 at plasma steady-state in 40 healthy human volunteers. Compound 1 (provided as Compound 1 phosphate) was administered to participants as multiple ascending doses of 0.5 mg (N=6), 1.0 mg (N=6), 1.5 mg (N=6), 2.0 mg (N=6), or 5.0 mg (N=6) once daily (QD) for 12 days.
Blood samples were collected, and plasma concentrations were measured using a validated high performance liquid chromatography/liquid chromatography-mass spectrometry/mass spectrometry method. The PK parameters assessed included Cmax, Tmax, AUC from administration to the end of dosing (AUC0-t), AUC0-24, AUC0-inf, t1/2, terminal rate constant (λz), apparent total clearance of the drug from plasma (CL/F), and apparent volume of distribution during terminal phase after non-intravenous administration (Vz/F).
The plasma concentration data for Compound 1 were summarized by dose level and the planned sampling time points using descriptive statistics (n, SD, median, minimum, maximum, geometric mean, and coefficient of variance (CV %) for the geometric mean) for the PK Analysis Set.
Specifically, samples for PK analyses were taken on Day 1 and Day 12 pre-dose, 0.5, 1, 1.5, 3, 6, 8, 10, and 12 h post-dose, with additional samples taken on every dosing Day (24 hours after the previous day's dose) and 24, 72, 168, and 336 h after last dosing on Day 12. All individual Compound 1 concentrations were above the LLOQ of 0.0500 ng/mL at 0.5 h post-dose, except for 1 participant, for whom the concentration was above the LLOQ at 1 h post-dose.

[3] = 0.5 mg oral QD, Day 1, 1440 min
[4] = 1.0 mg oral QD, Day 1, 1440 min
[5] = 1.5 mg oral QD, Day 1, 1440 min
[6] = 2.0 mg oral QD, Day 1, 1440 min

Chain of human GABAA receptor α2/β3/γ2 (P47869 29-451): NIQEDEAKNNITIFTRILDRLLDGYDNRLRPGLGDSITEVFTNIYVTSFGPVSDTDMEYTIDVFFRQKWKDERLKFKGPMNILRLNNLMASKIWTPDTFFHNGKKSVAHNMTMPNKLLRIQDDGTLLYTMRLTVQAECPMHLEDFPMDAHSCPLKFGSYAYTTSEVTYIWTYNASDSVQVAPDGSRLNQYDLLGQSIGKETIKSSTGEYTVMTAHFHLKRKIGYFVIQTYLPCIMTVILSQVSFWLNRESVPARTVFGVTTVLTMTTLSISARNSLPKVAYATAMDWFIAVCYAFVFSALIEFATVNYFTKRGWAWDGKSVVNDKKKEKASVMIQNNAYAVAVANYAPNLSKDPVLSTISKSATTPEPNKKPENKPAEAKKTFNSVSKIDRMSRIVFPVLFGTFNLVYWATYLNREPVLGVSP
Chain of human GABAA receptor α2/β3/γ2 (P18507 40-475): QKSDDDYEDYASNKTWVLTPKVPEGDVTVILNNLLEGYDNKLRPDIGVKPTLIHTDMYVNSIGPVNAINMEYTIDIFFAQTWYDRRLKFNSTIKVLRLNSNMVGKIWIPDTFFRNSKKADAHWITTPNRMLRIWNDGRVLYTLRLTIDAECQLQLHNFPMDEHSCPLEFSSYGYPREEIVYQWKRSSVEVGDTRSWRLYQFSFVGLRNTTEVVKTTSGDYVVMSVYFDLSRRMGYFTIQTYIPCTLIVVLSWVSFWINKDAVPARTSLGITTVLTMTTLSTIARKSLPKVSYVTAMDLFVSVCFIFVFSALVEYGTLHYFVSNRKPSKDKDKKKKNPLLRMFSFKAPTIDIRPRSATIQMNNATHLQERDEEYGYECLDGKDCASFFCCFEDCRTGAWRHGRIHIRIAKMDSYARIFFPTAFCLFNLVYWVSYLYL
Chain of human GABAA receptor α2/β3/γ2 (P28472 26-473 partner): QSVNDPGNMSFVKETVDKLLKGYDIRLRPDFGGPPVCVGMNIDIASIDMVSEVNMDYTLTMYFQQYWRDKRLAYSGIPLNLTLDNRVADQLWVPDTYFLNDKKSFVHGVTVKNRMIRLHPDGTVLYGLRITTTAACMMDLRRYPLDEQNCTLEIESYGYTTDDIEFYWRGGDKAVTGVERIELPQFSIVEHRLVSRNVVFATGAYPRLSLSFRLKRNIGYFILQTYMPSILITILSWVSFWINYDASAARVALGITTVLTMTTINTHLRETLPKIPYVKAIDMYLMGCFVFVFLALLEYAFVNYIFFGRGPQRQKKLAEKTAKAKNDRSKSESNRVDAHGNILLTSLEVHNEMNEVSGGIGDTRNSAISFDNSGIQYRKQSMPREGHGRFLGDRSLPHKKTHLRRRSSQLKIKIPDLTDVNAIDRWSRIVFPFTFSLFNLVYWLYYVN

CC(C)(O)c1cnn2c(-c3ccc(F)c(-c4c(F)cccc4C#N)c3)cnc2n1 [Compound 1, 2′,6-difluoro-5′-(3-(2-hydroxypropan-2-yl)imidazo[1,2-b][1,2,4]triazin-7-yl)-[1,1′-biphenyl]-2-carbonitrile]
EC50 [1]: 0.82 nM
Emax [1]: 89%
AUC0-24 (mean) [2, 3]: 52.56 ng·h/mL
Cmax (mean) [2, 3]: 4.615 ng/mL
AUCtau (mean) ([2]; 0.5 mg oral QD, Day 12): 197.54 ng·h/mL
t1/2 (mean) ([2]; 0.5 mg oral QD, Day 12): 65.610 h
Cmax (mean) ([2]; 0.5 mg oral QD, Day 12, 17280 min): 11.660 ng/mL
AUC0-24 (mean) [2, 4]: 117.81 ng·h/mL
Cmax (mean) [2, 4]: 8.497 ng/mL
AUCtau (mean) ([2]; 1.0 mg oral QD, Day 12): 410.07 ng·h/mL
t1/2 (mean) ([2]; 1.0 mg oral QD, Day 12): 60.876 h
Cmax (mean) ([2]; 1.0 mg oral QD, Day 12, 17280 min): 23.333 ng/mL
AUC0-24 (mean) [2, 5]: 216.99 ng·h/mL
Cmax (mean) [2, 5]: 18.833 ng/mL
AUCtau (mean) ([2]; 1.5 mg oral QD, Day 12): 705.65 ng·h/mL
t1/2 (mean) ([2]; 1.5 mg oral QD, Day 12): 50.526 h
AUC0-24 (mean) [2, 6]: 243.73 ng·h/mL
Cmax (mean) [2, 6]: 19.633 ng/mL
AUCtau (mean) ([2]; 2.0 mg oral QD, Day 12): 873.17 ng·h/mL
t1/2 (mean) ([2]; 2.0 mg oral QD, Day 12): 61.167 h
Cmax (mean) ([2]; 2.0 mg oral QD, Day 12, 17280 min): 49.817 ng/mL
AUC0-24 (mean) ([2]; 5.0 mg oral QD, Day 1, 1440 min): 641.92 ng·h/mL
t1/2 (mean) ([2]; 5.0 mg oral QD, Day 12): 38.695 h
trend of t1/2 or λz with increasing dose ([2]; 0.5-5.0 mg oral QD): no trend towards change in t1/2 or λz with increasing dose
dose proportionality of exposure ([2]; Cmax and AUC, 0.5-5.0 mg oral QD): generally increased dose- and concentration-proportionally; also recorded: Dose-proportional PK were confirmed over the investigated dose range
median time of the last quantifiable concentration ([2]; all cohorts, Day 1): approximately 24 h
linearity of dose normalized Cmax and AUC0-24 ([2]; arguable exception 1.5 mg): consistent with linear kinetics
AUC(0-t) at 24 h ([2]; 0.5 mg, 0.5 mg oral QD, Day 1, read-out: AUC0-24 (mean)): 53 ± 7 ng·h/mL
AUC(0-t) at 24 h ([2]; 0.5 mg, 0.5 mg oral QD, Day 1, read-out: AUC0-24 (median)): 54.8 ng·h/mL
Cmax at 24 h ([2]; 0.5 mg, 0.5 mg oral QD, Day 1, read-out: Cmax (mean)): 4.6 ± 2 ng/mL
Cmax at 24 h ([2]; 0.5 mg, 0.5 mg oral QD, Day 1, read-out: Cmax (median)): 4.58 ng/mL
AUC tau ([2]; 0.5 mg, 0.5 mg oral QD, Day 12, read-out: AUCtau (mean)): 198 ± 51 ng·h/mL
AUC tau ([2]; 0.5 mg, 0.5 mg oral QD, Day 12, read-out: AUCtau (median)): 201 ng·h/mL
Cmax at 288 h ([2]; 0.5 mg, 0.5 mg oral QD, Day 12, read-out: Cmax (mean)): 11.7 ± 4 ng/mL
Cmax at 288 h ([2]; 0.5 mg, 0.5 mg oral QD, Day 12, read-out: Cmax (median)): 11.6 ng/mL
half-life ([2]; 0.5 mg, 0.5 mg oral QD, Day 12, read-out: t1/2 (mean) (converted)): 66 ± 24 h
half-life ([2]; 0.5 mg, 0.5 mg oral QD, Day 12, read-out: t1/2 (median) (converted)): 64.3 h
AUC(0-t) at 24 h ([2]; 1 mg, 1.0 mg oral QD, Day 1, read-out: AUC0-24 (mean)): 118 ± 27 ng·h/mL
AUC(0-t) at 24 h ([2]; 1 mg, 1.0 mg oral QD, Day 1, read-out: AUC0-24 (median)): 117 ng·h/mL
Cmax at 24 h ([2]; 1 mg, 1.0 mg oral QD, Day 1, read-out: Cmax (mean)): 8.5 ± 3 ng/mL
Cmax at 24 h ([2]; 1 mg, 1.0 mg oral QD, Day 1, read-out: Cmax (median)): 8.99 ng/mL
AUC tau ([2]; 1 mg, 1.0 mg oral QD, Day 12, read-out: AUCtau (mean)): 410 ± 115 ng·h/mL
AUC tau ([2]; 1 mg, 1.0 mg oral QD, Day 12, read-out: AUCtau (median)): 416 ng·h/mL
Cmax at 288 h ([2]; 1 mg, 1.0 mg oral QD, Day 12, read-out: Cmax (mean)): 23.3 ± 5 ng/mL
Cmax at 288 h ([2]; 1 mg, 1.0 mg oral QD, Day 12, read-out: Cmax (median)): 22.6 ng/mL
half-life ([2]; 1 mg, 1.0 mg oral QD, Day 12, read-out: t1/2 (mean) (converted)): 61 ± 29 h
half-life ([2]; 1 mg, 1.0 mg oral QD, Day 12, read-out: t1/2 (median) (converted)): 58.2 h
AUC(0-t) at 24 h ([2]; 1.5 mg, 1.5 mg oral QD, Day 1, read-out: AUC0-24 (mean)): 217 ± 48 ng·h/mL
AUC(0-t) at 24 h ([2]; 1.5 mg, 1.5 mg oral QD, Day 1, read-out: AUC0-24 (median)): 227 ng·h/mL
Cmax at 24 h ([2]; 1.5 mg, 1.5 mg oral QD, Day 1, read-out: Cmax (mean)): 18.8 ± 7 ng/mL
Cmax at 24 h ([2]; 1.5 mg, 1.5 mg oral QD, Day 1, read-out: Cmax (median)): 18.2 ng/mL
AUC tau ([2]; 1.5 mg, 1.5 mg oral QD, Day 12, read-out: AUCtau (mean)): 706 ± 84 ng·h/mL
AUC tau ([2]; 1.5 mg, 1.5 mg oral QD, Day 12, read-out: AUCtau (median)): 738 ng·h/mL
Cmax at 288 h ([2]; 1.5 mg, 1.5 mg oral QD, Day 12, read-out: Cmax (mean)): 41.7 ± 5 ng/mL
Cmax at 288 h ([2]; 1.5 mg, 1.5 mg oral QD, Day 12, read-out: Cmax (median)): 42.6 ng/mL
half-life ([2]; 1.5 mg, 1.5 mg oral QD, Day 12, read-out: t1/2 (mean) (converted)): 51 ± 18 h
half-life ([2]; 1.5 mg, 1.5 mg oral QD, Day 12, read-out: t1/2 (median) (converted)): 49.1 h
AUC(0-t) at 24 h ([2]; 2 mg, 2.0 mg oral QD, Day 1, read-out: AUC0-24 (mean)): 244 ± 48 ng·h/mL
AUC(0-t) at 24 h ([2]; 2 mg, 2.0 mg oral QD, Day 1, read-out: AUC0-24 (median)): 226 ng·h/mL
